Source: patent US4211551A, “Herbicide” (Siegfried AG, priority 1976, dated 1980)

Legend:
[1] = system: Camomile (Matricaria chamomilla); assay: Field test, herbicidal % effect on weeds (logarithmic sprayer); assay type: in vivo; settings: four weeks
Description: (§1) The composition prepared according to example 6 was used in field tests and compared with a composition of the type set forth in example 6 with the modification that the CBPA was replaced by the same amount of a conventional herbicide, i.e. Methabenzthiazuron (BSI approved common name). A "logarithmic" spraying apparatus of the type known in herbicide evaluation was used for these tests. This apparatus comprises an elongated spraying device connected with a reservoir for the composition to be tested, and a water reservoir. Separate test areas were sprayed with this apparatus and each composition was applied as an aqueous suspension. […] The apparatus was operated such that the initial concentration of the active ingredient was equivalent to 10 kg/ha and decreased as follows:
(§2) The amount of water applied by the apparatus remained constant and was equivalent to 666 liters per hectare. The tests were made in early August of 1976. The test areas were seeded with crop plant on a substantially weed-free soil, a middle-heavy sandy clay. One test area (zero-control) was seeded but not sprayed. Four weeks thereafter, the treated areas were inspected to determine the number of individual weed plants per square meter for five significant types of weeds and to calculate the percent effect according to the formula
(§3) wherein AK is the number of the individual plants of the specific weed in the untreated zero-control area and AB is the corresponding number of weed plants in the treated area. The results of these tests for three different dosage amounts with the inventive CBPA (column A) and the prior art Methabenzthiazuron are summarized in Table I below. This table further includes compatibility data of three types of crop plants for the tested composition. Crop compatibility was rated according to the evaluation scale of the "European Weed Research Council (EWRC)." In this scale, numeral 1 indicates complete absence of plant damage symptoms while numeral 9 indicates complete damage. For practical purposes, the crop tolerance limit is assumed to be between numerals 4 and 5.

[2] = system: Chickweed (Stellaria media); assay: as above; assay type: in vivo; settings: four weeks
Description: as §1, §2, §3

[3] = system: Lambs Quarters (Chenopodium album); assay: as above; assay type: in vivo; settings: four weeks
Description: as §1, §2, §3

[4] = system: Rough Henbit (Lamium purpureum); assay: as above; assay type: in vivo; settings: four weeks
Description: as §1, §2, §3

[5] = system: Shepherds Purse (Capsella bursa-pastoris); assay: as above; assay type: in vivo; settings: four weeks
Description: as §1, §2, §3

[6] = system: five significant types of weeds; assay: Field test, average weed effect over five weeds; assay type: in vivo; settings: four weeks
Description: as §1, §2, §3

[7] = system: Corn (Zea mais); assay: Field test, crop compatibility (EWRC-evaluation); assay type: in vivo
Description: as §1, §2, §3

[8] = system: Green beans; assay: Field test, crop compatibility (EWRC-evaluation); assay type: in vivo
Description: as §1, §2, §3

[9] = system: weed infested crop area; assay: Treatment of weed infested crop area in the two to four leave state; assay type: in vivo
[10] = system: Annual meadow grass (Poa annua); assay: Further field tests, control of Graminae weeds; assay type: in vivo
Description: as §1, §2

[11] = system: Barnyard Grass (Echinochloa crus-galli); assay: Further field tests, control of Graminae weeds; assay type: in vivo
Description: as §1, §2

[12] = system: Common wild oat (Avena fatua); assay: Further field tests, control of Graminae weeds; assay type: in vivo
Description: as §1, §2

[13] = system: Wild oat (Avena fatua); assay: Green-house test, control of Wild oat (EWRC-scale); assay type: in vivo; settings: scale 1 = complete absence of plant damage, 9 = complete damage
Description: as §3
Green-house tests were made to determine the activity of CBPA in the control of Wild oat (Avena fatua), a very noxious weed in many crop cultures. The test plants were seeded and cultured in pots at temperatures of 20° to 21° C. Effectivity tests were made when the plants had reached the two-leave to four-leave state, i.e. when the total plant height was about 10 to 12 cm. The amount of water applied in addition to the composition was equivalent to 1000 liters per hectare in each case. As a comparative substance (formulated in the same manner as the inventive CBPA or its salts) a recently developed standard herbicide, Diclofop-methyl, (BSI-approved common name) was used.
The effects were rated again by the EWRC-scale mentioned above and the results are given in Table II below indicating the results at varying amounts of the applied substance (in kilograms of active substance per hectare) after 7, 14 and 21 days subsequent to the treatment.

[14] = system: monocotyledonous and dicotyledonous weeds; assay: Herbicidal effectiveness against monocotyledonous and dicotyledonous weeds; assay type: in vivo; settings: pre-emergence and post-emergence treatment
[15] = system: weeds of the Graminae family; assay: Herbicidal effectiveness against Graminae weeds; assay type: in vivo; settings: such as Barnyard grass, Annual meadow-grass, Wild Oat
[16] = system: mice; settings: cited from earlier work
[17] = system: Barley; assay: Field test, crop compatibility (EWRC-evaluation); assay type: in vivo; settings: scale 1 = complete absence of plant damage symptoms, 9 = complete damage
Description: as §1, §2, §3

O=C(O)COc1ccc(Cc2ccc(Cl)cc2)cc1 [CBPA, 4-(4'-chlorobenzyl)-phenoxy acetic acid]
Herbicidal % effect on specific weeds ([1]; 2.65 kg/ha a.i.): 70% | Herbicidal % effect on specific weeds ([1]; 4.3 kg/ha a.i.): 90% | Herbicidal % effect on specific weeds ([1]; 6.7 kg/ha a.i.): 100% | Herbicidal % effect on specific weeds ([2]; 2.65 kg/ha a.i.): 83% | Herbicidal % effect on specific weeds ([2]; 4.3 kg/ha a.i.): 100% | Herbicidal % effect on specific weeds ([2]; 6.7 kg/ha a.i.): 100% | Herbicidal % effect on specific weeds ([3]; 2.65 kg/ha a.i.): 83% | Herbicidal % effect on specific weeds ([3]; 4.3 kg/ha a.i.): 100% | Herbicidal % effect on specific weeds ([3]; 6.7 kg/ha a.i.): 100% | Herbicidal % effect on specific weeds ([4]; 2.65 kg/ha a.i.): 89% | Herbicidal % effect on specific weeds ([4]; 4.3 kg/ha a.i.): 91% | Herbicidal % effect on specific weeds ([4]; 6.7 kg/ha a.i.): 97% | Herbicidal % effect on specific weeds ([5]; 2.65 kg/ha a.i.): 84% | Herbicidal % effect on specific weeds ([5]; 4.3 kg/ha a.i.): 96% | Herbicidal % effect on specific weeds ([5]; 6.7 kg/ha a.i.): 100% | Average weed effect (%) ([6]; 2.65 kg/ha a.i.): 81.8% | Average weed effect (%) ([6]; 4.3 kg/ha a.i.): 95.4% | Average weed effect (%) ([6]; 6.7 kg/ha a.i.): 99.4% | Crop compatibility (EWRC-evaluation) ([7]; in vivo): 1 | Crop compatibility (EWRC-evaluation) ([8]; in vivo): 1 | Contact effect ([9]; two to four leave state, in addition to residual effectiveness): remarkable contact effect | Result of treatment in two to four leave state ([9]; weeds and crops in two to four leave state): positive results | Effectiveness for control of Graminae weeds [10]: remarkable effectiveness | Effectiveness for control of Graminae weeds [11]: remarkable effectiveness | Effectiveness for control of Graminae weeds [12]: remarkable effectiveness | Effect on Wild oat rated by EWRC-scale ([13]; 1 kg/ha, 7 days): 3 | Effect on Wild oat rated by EWRC-scale ([13]; 1 kg/ha, 14 days): 4 | Effect on Wild oat rated by EWRC-scale ([13]; 1 kg/ha, 21 days): 4 | Effect on Wild oat rated by EWRC-scale ([13]; 2 kg/ha, 7 days): 4 | Effect on Wild oat rated by EWRC-scale ([13]; 2 kg/ha, 14 days): 6 | Effect on Wild oat rated by EWRC-scale ([13]; 2 kg/ha, 21 days): 8 | Effect on Wild oat rated by EWRC-scale ([13]; 4 kg/ha, 7 days): 5 | Effect on Wild oat rated by EWRC-scale ([13]; 4 kg/ha, 14 days): 9 | Effect on Wild oat rated by EWRC-scale ([13]; 4 kg/ha, 21 days): 9 | Effect on Wild oat rated by EWRC-scale ([13]; 8 kg/ha, 7 days): 5 | Effect on Wild oat rated by EWRC-scale ([13]; 8 kg/ha, 14 days): 9 | Effect on Wild oat rated by EWRC-scale ([13]; 8 kg/ha, 21 days): 9 | Herbicidal effectiveness against monocotyledonous and dicotyledonous weeds [14]: remarkable degree of effectiveness | Herbicidal effectiveness against monocotyledonous and dicotyledonous weeds ([14]; listed as 4-(4'-chlorobenzyl)-phenoxy acetic acid): surprisingly high degree of herbicidal effectiveness | Effectiveness when controlling weeds of the Graminae family [15]: particularly beneficial and high degree of effectiveness | LD50 (acute oral toxicity) [16]: 2700 mg per kilogram of body weight

COC(=O)C(C)Oc1ccc(Oc2ccc(Cl)cc2Cl)cc1 (centres unmarked) [Diclofop-methyl, reference compound]
Effect on Wild oat rated by EWRC-scale ([13]; 1 kg/ha, 7 days): 2 | Effect on Wild oat rated by EWRC-scale ([13]; 1 kg/ha, 14 days): 4 | Effect on Wild oat rated by EWRC-scale ([13]; 1 kg/ha, 21 days): 4 | Effect on Wild oat rated by EWRC-scale ([13]; 2 kg/ha, 7 days): 3 | Effect on Wild oat rated by EWRC-scale ([13]; 2 kg/ha, 14 days): 5 | Effect on Wild oat rated by EWRC-scale ([13]; 2 kg/ha, 21 days): 5 | Effect on Wild oat rated by EWRC-scale ([13]; 4 kg/ha, 7 days): 5 | Effect on Wild oat rated by EWRC-scale ([13]; 4 kg/ha, 14 days): 7 | Effect on Wild oat rated by EWRC-scale ([13]; 4 kg/ha, 21 days): 8 | Effect on Wild oat rated by EWRC-scale ([13]; 8 kg/ha, 7 days): 5 | Effect on Wild oat rated by EWRC-scale ([13]; 8 kg/ha, 14 days): 6 | Effect on Wild oat rated by EWRC-scale ([13]; 8 kg/ha, 21 days): 8

CNC(=O)N(C)c1nc2ccccc2s1 [Methabenzthiazuron, reference compound]
Herbicidal % effect on specific weeds ([1]; 2.65 kg/ha a.i.): 88% | Herbicidal % effect on specific weeds ([1]; 4.3 kg/ha a.i.): 100% | Herbicidal % effect on specific weeds ([1]; 6.7 kg/ha a.i.): 100% | Herbicidal % effect on specific weeds ([2]; 2.65 kg/ha a.i.): 100% | Herbicidal % effect on specific weeds ([2]; 4.3 kg/ha a.i.): 100% | Herbicidal % effect on specific weeds ([2]; 6.7 kg/ha a.i.): 100% | Herbicidal % effect on specific weeds ([3]; 2.65 kg/ha a.i.): 87% | Herbicidal % effect on specific weeds ([3]; 4.3 kg/ha a.i.): 94% | Herbicidal % effect on specific weeds ([3]; 6.7 kg/ha a.i.): 98% | Herbicidal % effect on specific weeds ([4]; 2.65 kg/ha a.i.): 0% | Herbicidal % effect on specific weeds ([4]; 4.3 kg/ha a.i.): 73% | Herbicidal % effect on specific weeds ([4]; 6.7 kg/ha a.i.): 80% | Herbicidal % effect on specific weeds ([5]; 2.65 kg/ha a.i.): 95% | Herbicidal % effect on specific weeds ([5]; 4.3 kg/ha a.i.): 99% | Herbicidal % effect on specific weeds ([5]; 6.7 kg/ha a.i.): 100% | Average weed effect (%) ([6]; 2.65 kg/ha a.i.): 74% | Average weed effect (%) ([6]; 4.3 kg/ha a.i.): 91.5% | Average weed effect (%) ([6]; 6.7 kg/ha a.i.): 95.6% | Crop compatibility (EWRC-evaluation) ([17]; 2.65 kg/ha a.i., tolerance limit between 4 and 5): 1 | Crop compatibility (EWRC-evaluation) ([17]; 4.3 kg/ha a.i.): 1 | Crop compatibility (EWRC-evaluation) ([17]; 6.7 kg/ha a.i., tolerance limit between 4 and 5): 5 | Crop compatibility (EWRC-evaluation) ([7]; Corn, 2.65 kg/ha a.i., scale 1 = complete absence of plant damage symptoms, 9 = complete damage, tolerance limit between 4 and 5): 1 | Crop compatibility (EWRC-evaluation) ([7]; Corn, 4.3 kg/ha a.i., scale 1 = complete absence of plant damage symptoms, 9 = complete damage): 1 | Crop compatibility (EWRC-evaluation) ([7]; Corn, 6.7 kg/ha a.i., scale 1 = complete absence of plant damage symptoms, 9 = complete damage): 1 | Crop compatibility (EWRC-evaluation) ([8]; Green beans, 2.65 kg/ha a.i., scale 1 = complete absence of plant damage symptoms, 9 = complete damage, tolerance limit between 4 and 5): 1 | Crop compatibility (EWRC-evaluation) ([8]; Green beans, 4.3 kg/ha a.i., scale 1 = complete absence of plant damage symptoms, 9 = complete damage): 1 | Crop compatibility (EWRC-evaluation) ([8]; Green beans, 6.7 kg/ha a.i., scale 1 = complete absence of plant damage symptoms, 9 = complete damage): 1
